Laboratory results: patent publication US20240114949A1, “AEROSOLIZABLE MATERIAL” (Nicoventures Trading Limited, priority 2019, published 2024)

Assay: Solubility of cannabidiol isolate in glycerol/propylene glycol/water solutions
Format: physicochemical
Conditions: Isolate 10 mg/mL

With C=C(C)[C@@H]1CCC(C)=C[C@H]1c1c(O)cc(CCCCC)cc1O [Isolate, cannabidiol] the Soluble (Glycerol 36, PG 52.09, Water 11 (w/w)) was “YES”, the Soluble (Glycerol 36, PG 53.09, Water 10 (w/w)) was “YES” and the soluble at 10 mg/mL (yes/no) (glycerol/propylene glycol/water solution, organic solvent or mixture, Glycerol 36, PG 47.09, Water 16 (w/w)) was less than 10000 µg/mL.
